Laboratory results as given in patent US6566508B2, “Fluorogenic compounds and uses therefor” (3M Innovative Properties Company, priority 2000, dated 2003).
Where two headings read alike, the source gives them in different places.

Columns and labels:
[1] = pKa determination from fluorescence emission as a function of pH
Method: Fifty microliters of this solution were then diluted to 4.00 mL in a series of 50 mM sodium phosphate buffer solutions, each having a different pH, corresponding to the traces of FIG. 7a, as shown in Table 1. The final concentration of TU was 3.08×10^−4 M.

[2] = Fluorescence excitation and emission spectra; conditions: for λem (nm) / λex (nm): anion of hydrolysis product
Text: Fluorescence measurements were made using a SPEX Fluorolog™ Series spectrofluorimeter (SPEX Industries, Inc., Edison, N.J.).
By using an excitation source filter centered in this spectral window and an emission source filter centered between 480 nm and 600 nm, the formation of TU anion can be measured as a product of the enzymatic cleavage of β-TUGlc without interference from β-TUGlc fluorescence.

[3] = system: B. stearothermophilus spores; test: Bacterial hydrolysis of α-TUGlc; type: cell-based, Bacillus stearothermophilus; conditions: spores 1×10^8 cells/mL diluted in growth media, 56° C., 10 μL of 246 μM substrate
Method: 100 μL of B. stearothermophilus spores (initial cone. 1×10^8 cells/mL) was added to 890 μL of growth media and the mixture was incubated at 56° C. for 7 minutes. […] This increase in fluorescence indicates enzymatic cleavage of the substrate. However, because the spores have both β- and α-glucosidase activity, the stereochemistry of the substrate can not be judged.

[4] = system: B. stearothermophilus α-glucosidase; test: Enzymatic hydrolysis of α-TUGlc; type: biochemical; conditions: 60° C., growth media, 10 μL of 246 μM substrate, ex 450 nm, em 502 nm
Method: Commercially prepared B. stearothermophilus α-glucosidase (Sigma Chemical Company, St. Louis, Mo.) was used as 100 units per mL (1 unit produces 1 μmole of product per minute). 10 μL of this solution was added to […] of growth media to simulate the actual environment of the bacterial spores. This enzyme and media mixture was then incubated for 7 minutes at 60° C., at which time 10 μL of 246 μM α-TUGlc (prepared as described in Example 4) was added. The reaction was monitored on the SPEX Fluorolog™ spectrofluorimeter by exciting at 450 nm with emission at 502 nm. […] Variation in fluorescence may be due to variation in activity of the bacterial enzyme per mL of mixture. The assays of examples 7 and 8 confirmed the presence of the α-glucoside derivative.

E. coli P18 cells = test: Escherichia coli detection with β-TUGal in growth media (microwell fluorescence); type: cell-based
Method: E. coli is known to secrete extracellular galactosidase. In a selective growth media, E. coli can be detected based on development of this enzyme activity. Varying concentrations of 3-(2-thienyl) umbelliferyl-β-D-galactoside (β-TUGal) indicator were assayed against three known concentrations of E. coli P 18 cells: ca 10^3, 10^2, and 10 cells/mL. Viable cell counts were determined using Petrifilm (3M, St. Paul, Minn.). Adjusting for the dilutions used in the fluorescence detection experiments, cell counts were approximately 56, 5.6, and 0.56 cells per well. A fresh overnight culture of E. coli P18 was prepared and grown in tryptic soy broth (TSB, Sigma Chemical Co., St. Louis, Mo.). Ten μL of this stock culture was diluted into […] of Butterfields phosphate buffer (Hardy Diagnostics, Santa Maria, Calif.) to give a 10,000 fold dilution. Next, 10 mL of this new solution was diluted into 90 mL of phosphate buffer to give an approximate E. coli concentration of 10^3 cells/mL. Two more dilutions in this same manner yielded cultures of 10^2 and 10 cells/mL. […] Each of the three lowest dilutions of the E. coli culture were counted on Petrifilm by plating 1 mL of each and growing overnight at 37° C.

[5] = molecular target: β-galactosidase from E. coli (Escherichia coli, UniProt P00722); conditions: pH 7.6, 37° C., excitation 450 nm, 1, 10 and 20 μM substrate
Method: β-Galactosidase activity was continuously assayed at pH 7.6 in a fluorometer using front face detection.
Samples were excited at 450 nm and emission was monitored at 502 nm.
Assay solutions were prepared as follows: a 100 mM sodium phosphate solution, pH 7.6, a 30 mM MgCl2 solution, a solution of β-TUGal (3.08×10^−2 M, Example 1) in N,N-dimethyl formamide (DMF), and a solution of β-galactosidase (1.0 units/μl) from E. coli (Grade VIII, Sigma Chemical Co., St. Louis, Mo.) reconstituted in 100 mM sodium phosphate, pH 7.3.
All reagents were kept on ice until their time of use. From them, two solutions were prepared: the substrate solution and the enzyme solution. The substrate solution was prepared in a sample vial by further dilution of the β-TUGal solution in DMF. The preparations gave final concentrations of 1, 10, and 20 μM β-TUGal. In a separate cuvette, the phosphate buffer was combined with 150 μL MgCl2 solution and the appropriate amount of reconstituted β-galactosidase to make the enzyme solution. This was then incubated for seven minutes at 37° C. Following incubation, the substrate solution was added and the fluorescence was measured by front face detection over a 10-minute period at 37° C.

[6] = system: B. stearothermophilus spores; test: Bacillus stearothermophilus detection with β-TUGlc; type: cell-based
Method: B. stearothermophilus spores (commercially available as ATCC 7953 or ATCC 8005 from American Type Culture Collection, Rockville, Md.) were diluted in growth media to a concentration of 1.3×10^8 cells per mL. Dilutions to 10^7 […] and 10^6 cells/mL were prepared using 50 mM sodium phosphate, pH 7.6. Aliquots of these solutions were incubated with β-TUGlc (2×10^−6 M) at 56° C. in a fluorimeter and fluorescence was monitored with excitation at 450 nm and emission at 502 nm. […] In a similar manner, spore solutions that had been steam-sterilized for 20 minutes at 121° C. were mixed with the β-TUGlc. […] The growth medium for this Example was prepared by dissolution of trypticase peptone (5 g), phytone peptone (12 g) and L-alanine (17 mg) in 1 liter of water.

β-glucosidase [7] = test: LED-based monitoring of enzymatic cleavage of β-TUGlc; type: biochemical
Method: A 10× objective was used for large detection zones (e.g., solution cuvettes, microwell arrays) and a 40× objective was used for small samples (e.g., 50 μm wide channels in microfluidic chips). […] (Model #04 OAS 016; 0.65 N.A.).
Two stock solutions of β-glucosidase (Sigma Chemical Co., St. Louis, Mo.) were prepared in pH 7.6 phosphate buffered saline (PBS): (a) 1 enzyme unit/20 μL and (b) 1 enzyme unit/400 μL, where one enzyme unit liberates 1 μMole of product per minute when salicin is the substrate. Required amounts of the stock solutions were diluted with 980 μL of PBS to create samples of 0.5, 0.125, 0.0625, 0.025, and 0.0125 units per mL, represented in FIG. 17a by traces 1 through 5, respectively. These samples were incubated for 7 minutes at 37° C., then treated with 5 μL of 24.6 mM β-TUGlc in DMF (Example 1) such that the initial concentration of β-TUGlc was 123 μM.
Fluorescence resulting from cleavage of the substrate was monitored in a thermostatted cuvette at 37 ° C. using the testbed described in Example 9 with a PMT gain setting of 822 Amperes/Watt. Fluorescent response for each enzyme concentration was monitored for three minutes. FIG. 17b is a plot of the initial rates of reaction obtained from the data in FIG. 17a.

Bacillus subtilis spores = test: LED-based monitoring of bacterial cleavage of β-TUGlc; type: cell-based
Text: LED 110, having a maximum emission at 475 nm (Model HP HLMP CB15, Hewlett Packard Instruments, Palo Alto, Calif.), was driven in a pulsed mode with a 10% duty cycle by computer-controlled pulse generator 132 (Hewlett Packard Instruments). Light from LED 110 was introduced into filter block 130 (Model I3, Leica Microsystems, Inc., Deerfield, Ill.), comprising excitation filter 112 (model BP, 450-490 nm), dichroic mirror 114 (model RKP, reflection short pass at 510 nm), and emission filter 120 (model LP, 515 nm) and focused on an illumination region of sample 118 by objective lens 116. The illumination region was designed to accommodate a solution sample, a microfluidic chip, or other sample that might contain β-TUGlc to be enzymatically cleaved. A 10× objective was used for large detection zones (e.g., solution cuvettes, microwell arrays) and a 40× objective was used for small samples (e.g., 50 μm wide channels in microfluidic chips). Both objective lenses were obtained from Melles Griot, Irvine, Calif. […] Return fluorescence was passed through objective lens 116, reflected from dichroic mirror 114 through emission filter 120 and iris diaphragm 122, and detected with photomultiplier tube 124 (PMT Model H5783, Hamamatsu Corp., Bridgewater, N.J.) having an adjustable gain between 0 and 70,000 Amperes/Watt. PMT module 124 was powered by a 15 volt power supply (not shown). […]

[8] = Autoclave stability of β-TUGlc; type: physicochemical; conditions: 0.1 g/mL in B. subtilis growth media and pH 7.6 PBS; 20 minutes at 121° C., then 15 minutes at 132° C.
Method: Solutions of 0.1 g/mL of β-TUGlc (Example 1) in B. subtilis growth media and in pH 7.6 phosphate buffered saline (PBS) were heated in an autoclave for 20 minutes at 121° C. Fluorescence spectrum on excitation at 362 nm was obtained. The sample was heated a second time in an autoclave for 15 minutes at 132° C., and the fluorescence spectrum was obtained. […] Therefore, β-TUGlc was sufficiently robust to be used in a sterilization indicator format such as a Attest™ Rapid Readout Biological Indicator (3M Company, St. Paul, Minn.), wherein the fluorogenic enzyme substrate and the biological spore are both exposed to the conditions within the steam sterilizer.

β-glucosidase [9] = test: Hand-held LED probe, cleavage of β-TUGlc; type: biochemical; conditions: 0.125 units β-glucosidase, pH 7.6 PBS, GaN LED
Method: A solution of 100 μL of 1.0 mM β-TUGlc (Example 1) in DMF was combined with 840 μL of 7.6 pH PBS in a 1 mL cuvette, and the volume was adjusted to 990 μL by the addition of […] of 30 mM aq. MgCl. The mixture was irradiated using a GaN LED (λmax=480 nm, Nichia Chemical Industries, Ltd., Anan, J P) mounted in a compact, hand-held probe, and 10 μL of β-glucosidase (0.125 units in pH 7.6 PBS) was added. Within ten seconds, a strong fluorescent signal could be seen in the cuvette.

[10] = 5 μM solution in 50 mM PBS at pH 10.0
[11] = 5 μM solution in phosphate buffered saline at pH 7.6

Sequence of β-galactosidase from E. coli (P00722 2-1024): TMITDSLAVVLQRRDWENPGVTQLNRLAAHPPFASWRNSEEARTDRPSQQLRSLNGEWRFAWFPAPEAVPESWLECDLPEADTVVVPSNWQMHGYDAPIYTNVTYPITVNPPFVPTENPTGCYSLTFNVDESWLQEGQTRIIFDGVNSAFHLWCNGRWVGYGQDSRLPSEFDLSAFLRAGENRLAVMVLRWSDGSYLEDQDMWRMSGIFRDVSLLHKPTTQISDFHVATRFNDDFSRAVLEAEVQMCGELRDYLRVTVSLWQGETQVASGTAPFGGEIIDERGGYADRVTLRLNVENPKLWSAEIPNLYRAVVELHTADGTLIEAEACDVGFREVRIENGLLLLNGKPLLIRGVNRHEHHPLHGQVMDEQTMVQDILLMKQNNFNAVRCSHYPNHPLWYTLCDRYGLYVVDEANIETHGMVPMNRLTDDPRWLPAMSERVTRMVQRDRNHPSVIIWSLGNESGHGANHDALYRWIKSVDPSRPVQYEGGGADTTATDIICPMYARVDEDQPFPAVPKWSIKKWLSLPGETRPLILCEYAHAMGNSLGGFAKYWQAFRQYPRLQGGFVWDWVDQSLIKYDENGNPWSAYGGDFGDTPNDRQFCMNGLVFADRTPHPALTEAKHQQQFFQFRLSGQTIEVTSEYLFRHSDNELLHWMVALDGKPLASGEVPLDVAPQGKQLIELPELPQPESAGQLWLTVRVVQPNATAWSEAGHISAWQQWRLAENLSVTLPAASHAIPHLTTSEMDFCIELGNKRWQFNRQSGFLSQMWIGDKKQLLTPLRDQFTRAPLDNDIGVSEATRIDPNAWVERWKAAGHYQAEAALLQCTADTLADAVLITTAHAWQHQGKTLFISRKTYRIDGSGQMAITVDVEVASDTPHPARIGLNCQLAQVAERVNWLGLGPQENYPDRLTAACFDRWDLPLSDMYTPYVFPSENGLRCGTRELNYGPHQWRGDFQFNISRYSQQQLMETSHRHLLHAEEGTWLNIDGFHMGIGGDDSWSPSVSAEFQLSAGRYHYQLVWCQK

SMILES: O=c1oc2cc(O)ccc2cc1-c1nc2ccccc2[nH]1 [3-(2-benzoimidazolyl) umbelliferyl anion]
- pKa [1]: 7.01
- λem (nm) [2]: 477 nm
- λex (nm) [2]: 420 nm

SMILES: O=c1oc2cc(O)ccc2cc1-c1nc2ccccc2s1 [3-(2-benzothiazolyl) umbelliferyl anion]
- pKa [1]: 6.79
- λem (nm) [2]: 488 nm
- λex (nm) [2]: 447 nm

SMILES: O=c1oc2cc(O)ccc2cc1-c1nc2ccccc2o1 [3-(2-benzoxazolyl) umbelliferyl anion]
- pKa [1]: 6.56
- λem (nm) [2]: 471 nm
- λex (nm) [2]: 425 nm

SMILES: O=c1oc2cc(O)ccc2cc1-c1cccs1 [3-(2-thienyl) umbelliferyl anion, 3-(2-thienyl) umbelliferone]
- pKa ([1]; umbelliferone hydrolysis product): 7.57±0.03
- emission maximum [2, 10]: ~502 nm
- excitation maximum [2, 10]: ~410 nm
- λem (nm) [2]: 502 nm
- λex (nm) [2]: 410 nm

SMILES: O=c1oc2cc(OC3OC(CO)C(O)C(O)C3O)ccc2cc1-c1cccs1 (stereo not drawn) [α-TUGlc]
- fluorescence at 502 nm after substrate addition [3]: Fluorescence increased rapidly in the first 20 minutes
- time at which Vmax appears [4]: about 2 minutes

SMILES: O=c1oc2cc(O[C@@H]3O[C@H](CO)[C@H](O)[C@H](O)[C@H]3O)ccc2cc1-c1cccs1 [β-TUGal, 3-(2-thienyl)-umbelliferyl-7-β-D-galactoside]
- positive results (E. coli P18 cells; 0.56 cell concentration): 3 of the 10 concentrations showed positive results
- fastest time to positive result (E. coli P18 cells; 56 cells per well, 62 μM indicator): 6.5 h
- fluorescence at 502 nm on addition of β-galactosidase [5]: rapid increase in fluorescence

SMILES: O=c1oc2cc(O[C@@H]3O[C@H](CO)[C@@H](O)[C@H](O)[C@H]3O)ccc2cc1-c1cccs1 [β-TUGlc, 3-(2-thienyl)-umbelliferyl-7-β-D-glucoside]
- time until fluorescence changes were evident ([6]; 10^7 and 10^6 cells/mL, 2×10^−6 M substrate, 56° C., ex 450 nm, em 502 nm): less than 10 minutes
- cleavage by steam-sterilized spore solutions ([6]; spores steam-sterilized 20 minutes at 121° C.): no enzymatic cleavage reaction
- time to significant, detectable fluorescent signal (β-glucosidase [7]; 0.5 enzyme units, 123 μM substrate, 37° C., pH 7.6 PBS): less than 5 seconds
- fluorescent signal with steam-sterilized enzyme (β-glucosidase [7]; enzyme solutions steam-sterilized at 121° C. for 20 minutes): no time-dependent changes in the fluorescent signal
- time to presumptive identification of B. subtilis after mixing (Bacillus subtilis spores; 10^8 spores/mL, 37° C., PMT gain 88 Amperes/Watt): less than five
- fluorescent signal with steam-sterilized control (Bacillus subtilis spores; steam-sterilized at 121° C. for 20 minutes): no time-dependent changes in the fluorescent signal
- fraction hydrolyzed during each autoclave cycle [8]: approximately 10%
- time to strong fluorescent signal (β-glucosidase [9]): ten
- emission maximum [2, 11]: ~460 nm
- excitation maximum [2, 11]: ~380 nm
